Experiment [1] has as its target T1, recombinant human Meningioma Expressed Antigen 5 (MGEA5), also referred to as O-GlcNAcase (OGA) (Homo sapiens, UniProt O60502).
T1 construct: Full length OGA enzyme was purchased at OriGene (cat #TP322411); purchased OriGene TP322411
T1 sequence (O60502 1-916): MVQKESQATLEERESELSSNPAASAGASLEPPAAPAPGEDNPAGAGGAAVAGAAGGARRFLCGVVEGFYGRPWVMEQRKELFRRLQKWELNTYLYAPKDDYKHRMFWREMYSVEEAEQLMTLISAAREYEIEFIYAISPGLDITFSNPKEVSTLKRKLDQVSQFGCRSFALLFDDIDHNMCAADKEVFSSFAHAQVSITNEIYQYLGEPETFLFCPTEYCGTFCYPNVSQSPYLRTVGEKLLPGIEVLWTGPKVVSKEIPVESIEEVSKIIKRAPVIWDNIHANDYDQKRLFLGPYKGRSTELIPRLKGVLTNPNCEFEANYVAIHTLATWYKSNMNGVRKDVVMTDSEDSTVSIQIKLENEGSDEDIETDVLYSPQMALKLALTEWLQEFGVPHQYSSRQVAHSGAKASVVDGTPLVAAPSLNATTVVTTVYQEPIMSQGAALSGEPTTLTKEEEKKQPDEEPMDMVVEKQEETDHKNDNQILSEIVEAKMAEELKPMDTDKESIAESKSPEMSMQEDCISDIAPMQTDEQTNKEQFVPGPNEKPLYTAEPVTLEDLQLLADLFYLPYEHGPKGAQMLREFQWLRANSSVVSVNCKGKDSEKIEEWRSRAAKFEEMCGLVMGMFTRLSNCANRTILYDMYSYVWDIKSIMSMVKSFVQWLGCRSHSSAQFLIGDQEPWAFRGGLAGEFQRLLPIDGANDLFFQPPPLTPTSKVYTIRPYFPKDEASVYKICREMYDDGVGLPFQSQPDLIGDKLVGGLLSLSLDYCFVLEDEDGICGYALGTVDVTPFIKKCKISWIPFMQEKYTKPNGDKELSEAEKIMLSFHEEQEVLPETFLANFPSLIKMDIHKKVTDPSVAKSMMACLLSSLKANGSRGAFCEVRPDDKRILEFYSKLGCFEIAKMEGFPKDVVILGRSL
As to the kind of experiment: OGA biochemical assay (inhibition of FM-GlcNAc hydrolysis, fluorescence). As to conditions: for Emax: read-out: Enzymatic Emax (%); for IC50: read-out: Enzymatic hOGA, pIC50 (converted). Put shortly: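 Full-length OGA at 2 nM was pre-incubated 60 min at room temperature with compound, then FM-GlcNAc at 100 uM final was added in citrate/phosphate buffer pH 7.2 with 0.005% Tween-20. After 6 h at room temperature, carbonate pH 11.0 stopped the reaction. Fluorescence read at 485/538 nm; IC50 and Hill coefficient from curve fit against no-inhibitor and saturating-standard controls.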

In a further experiment the target is T2, OGA (Homo sapiens, UniProt O60502).
T2 construct: HEK293 cells inducible for P301L mutant human Tau (isoform 2N4R) were established at Janssen; endogenous in cells; host or cells: HEK293 cells inducible for P301L mutant human Tau (2N4R)
T2 sequence (O60502 1-916): T1 sequence (O60502 1-916)
Kind of experiment: OGA cellular assay (ICC detection of O-GlcNAcylated proteins in HEK293 cells inducible for P301L mutant human Tau). The class given is cell-based. As to conditions: 6 hours incubation; for Emax: HEK293, HEK293 cells inducible for P301L mutant human Tau; for Emax / Cellular Emax (%): maximum = Thiamet G 200 uM; for EC50 / Cellular Emax (%): HEK293 cells inducible for P301L mutant human Tau; for EC50: read-out: Cellular hOGA, pEC50 (converted). Put shortly:
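HEK293 cells with inducible P301L 2N4R Tau, seeded in low-glucose medium, were exposed to compounds for 6 hours (0.2% DMSO), then PFA-fixed and stained with CTD110.6. Imaging intensity at 488 nm measured O-GlcNAcylation, with Hoechst nuclei counts for toxicity. IC50s came from non-linear regression, with Thiamet G at 200 uM as maximum inhibition.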

This note sets out measurements from US20210122763A1, “OGA INHIBITOR COMPOUNDS” (Janssen Pharmaceutica NV, priority 2018, published 2021).

As usually defined, the Emax is the maximal effect, on the per cent scale that the assay sets.

Take `CC(c1nc2c(cc1F)OCCO2)N1CCC(Oc2ccc(C(F)(F)F)cn2)CC1` (centres unmarked) [Compound 158]: in experiment [1], the Emax was 99% and the IC50 was 0.0158 µM. Also, on OGA, the Emax was found to be 77% and the EC50 is 0.251 µM.

As for `Cc1cc(OC2CCN(C(C)c3ccc4sc(C)nc4n3)CC2)c(Cl)c(C)n1` (centres unmarked) [Compound 27], in experiment [1], the maximum response (Emax) was 99% and the IC50 was 0.1 µM. Further, at OGA, the Emax turned out to be 76% and the EC50 was 0.501 µM.

Take `Cc1cc(OC2CCN(C(C)c3cc4nc(C)sc4cc3F)CC2)cc(C)n1` (centres unmarked) [Compound 8]: in experiment [1], the Emax turned out to be 100% and the IC50 was 0.0158 µM. On OGA, the Emax worked out at 89% and the EC50 is 0.0631 µM.

With `CC(c1ccc2c(n1)OCCO2)N1CCC(Oc2ncc(F)cc2F)CC1` (centres unmarked) [Compound 52], in experiment [1], the Emax came out at 96% and the IC50 was 0.501 µM. At OGA, the maximal effect (Emax) was 16% and the EC50 is over 1 µM.

`Cc1cc(OC2CCN([C@H](C)c3ccc4c(n3)OCCO4)CC2)cc(C(F)(F)F)n1` (single isomer, unassigned) [Compound 146]: in experiment [1], the Emax is 58% and the IC50 was 6.31 µM. At OGA, the Emax worked out at 2% and the EC50 was over 1 µM.

Regarding `Cc1cc(OC2CCN([C@H](C)c3nc4nc(C)sc4cc3F)CC2)cc(C)n1` (single isomer, unassigned) [Compound 82], in experiment [1], the Emax was 97% and the IC50 is 0.631 µM. On OGA, the maximum response (Emax) came out at 18% and the EC50 is over 1 µM.

With `C[C@@H](c1nc2c(cc1F)OCCO2)N1CCC(Oc2ccc(C#N)nn2)CC1` (single isomer, unassigned) [Compound 86], in experiment [1], the maximal response (Emax) stood at 94% and the IC50 is 0.0158 µM. Besides, at OGA, the Emax is 100% and the EC50 was 0.1 µM.

As for `Cc1cc(OC2CCN(C(C)c3nc4c(cc3F)OCCO4)CC2)cc(C)n1` (centres unmarked) [Compound 4], in experiment [1], the Emax came out at 99% and the IC50 was 0.0126 µM. Also, on OGA, the maximum response (Emax) was 76% and the EC50 is 0.0398 µM.

For `CC(C)c1ncc(OC2CCN(C(C)c3ccc4c(n3)OCCO4)CC2)cn1` (centres unmarked) [Compound 119], in experiment [1], the Emax is 100% and the IC50 is 0.0631 µM. On OGA, the maximum response (Emax) worked out at 68% and the EC50 was 0.331 µM.

Consider `COc1cc(OC2CCN(C(C)c3cnc4c(c3)OCCO4)CC2)cc(C)n1` (centres unmarked) [Compound 37], for which, in experiment [1], the Emax is 98% and the IC50 was 0.398 µM. Further, at OGA, the Emax came to 23% and the EC50 is over 1 µM.

With `COc1cc(OC2CCN(C(C)c3nc4c(cc3F)OCCO4)CC2)ncc1C#N` (centres unmarked) [Compound 153], in experiment [1], the Emax was found to be 95% and the IC50 is 0.0316 µM. Further, on OGA, the Emax came out at 67% and the EC50 is 0.2 µM.

`COc1cc(OC2CCN(C(C)c3ccc4sc(C)nc4n3)CC2)cc(C)n1` (single isomer, unassigned) [Compound 23]: in experiment [1], the “Enzymatic Emax (%)” value amounted to 59% and the IC50 was 3.98 µM. At OGA, the “Cellular Emax (%)” value was −8% and the EC50 is over 1 µM.

Turning to `Cc1cc(OC2CCN(C(C)c3cnc4c(c3)OCCN4)CC2)cc(C)n1` (centres unmarked) [Compound 34], in experiment [1], the Emax was found to be 102% and the IC50 was 0.158 µM. Moreover, at OGA, the maximal response (Emax) turned out to be 77% and the EC50 was 0.158 µM.

Take `COc1cc(OC2CCN(C(C)c3ccc4c(n3)OCCO4)CC2)ccn1` (centres unmarked) [Compound 72]: in experiment [1], the Emax was determined as 101% and the IC50 is 0.0316 µM. Further, at OGA, the maximal effect (Emax) came out at 60% and the EC50 is 0.251 µM.

Turning to `COc1cc(OC2CCN(C(C)c3ccc4c(n3)OCCO4)CC2)cc(C)n1` (single isomer, unassigned) [Compound 54], in experiment [1], the “Enzymatic Emax (%)” value was 100% and the IC50 was 0.0126 µM. Also, on OGA, the “Cellular Emax (%)” value was found to be 83% and the EC50 is 0.126 µM.

With `Cc1cc(OC2CCN(C(C)c3ccc4c(n3)OCCO4)CC2)nc(C)n1` (single isomer, unassigned) [Compound 10], in experiment [1], the maximal effect (Emax) is 100% and the IC50 is 0.0501 µM. Further, on OGA, the Emax is 73% and the EC50 was 0.631 µM.

Regarding `Cc1cc(COC2CCN(C(C)c3ccc4c(n3)OCCO4)CC2)cc(C)n1` (centres unmarked) [Compound 89], in experiment [1], the maximal response (Emax) turned out to be 97% and the IC50 was 0.126 µM. Further, at OGA, the maximal effect (Emax) is 63% and the EC50 is about 0.501 µM.

As to `Cc1cc(OC2CCN([C@@H](C)c3nc4c(cc3F)CCO4)CC2)cc(C)n1` (single isomer, unassigned) [Compound 145], in experiment [1], the Emax amounted to 86% and the IC50 is 1.58 µM. Besides, at OGA, the maximal effect (Emax) was 8% and the EC50 is over 1 µM.

`Cc1cc(OC2CCN(C(C)c3nc4c(cc3F)OCCO4)CC2)cc(C(F)F)n1` (centres unmarked) [Compound 63]: in experiment [1], the Emax stood at 96% and the IC50 is 0.01 µM. On OGA, the Emax was 80% and the EC50 was 0.0794 µM.

As to `Cc1cc(COC2CCN(C(C)c3nc4nc(C)sc4cc3F)CC2)cc(C)n1` (centres unmarked) [Compound 160], in experiment [1], the maximum response (Emax) was 96% and the IC50 was 0.0126 µM. At OGA, the Emax was 87% and the EC50 is 0.0398 µM.

For `Cc1cc(C)c(OC2CCN(C(C)c3nc4c(cc3F)OCCO4)CC2)nn1` (centres unmarked) [Compound 88], in experiment [1], the Emax came to 98% and the IC50 was 0.1 µM. For the same compound, on OGA, the maximal effect (Emax) turned out to be 59% and the EC50 was 0.501 µM.

`CC(c1nc2c(cc1F)OCCO2)N1CCC(Oc2ccnc(C#N)c2)CC1` (centres unmarked) [Compound 155]: in experiment [1], the Emax was found to be 94% and the IC50 was 0.0158 µM. For the same compound, on OGA, the Emax stood at 67% and the EC50 is 0.0794 µM.

As for `Cc1cc(C)nc(OC2CCN(C(C)c3ccc4c(n3)OCCO4)CC2)c1` (centres unmarked) [Compound 71], in experiment [1], the Emax is 100% and the IC50 was 0.126 µM. In addition, on OGA, the Emax stood at 35% and the EC50 is over 1 µM.

With `Cc1cc(OC2CCN(C(C)c3nc4c(cc3F)OCCO4)CC2)cnc1C` (centres unmarked) [Compound 166], in experiment [1], the Emax was 98% and the IC50 is 0.01 µM. In addition, on OGA, the Emax turned out to be 85% and the EC50 is 0.0631 µM.

`Cc1ncc(OC2CCN(C(C)c3ccc4c(n3)OCCO4)CC2)cc1F` (centres unmarked) [Compound 152]: in experiment [1], the maximal effect (Emax) came to 93% and the IC50 was 0.1 µM. This compound showed an Emax on OGA of 42%.

Turning to `CC(c1ccc2c(n1)OCCO2)N1CCC(Oc2cnc(C3CCC3)nc2)CC1` (centres unmarked) [Compound 163], in experiment [1], the Emax came out at 92% and the IC50 was 0.126 µM. In addition, on OGA, the maximal response (Emax) was found to be 34% and the EC50 was over 1 µM.

Regarding `CC(c1ccc2c(n1)OCCO2)N1CCC(Oc2ncccc2C#N)CC1` (centres unmarked) [Compound 50], in experiment [1], the Emax is 95% and the IC50 is 1 µM. Further, on OGA, the Emax was determined as 9% and the EC50 is over 1 µM.

Turning to `Cc1ncc(OC2CCN(C(C)c3nc4c(cc3F)OCCO4)CC2)nc1C` (centres unmarked) [Compound 110], in experiment [1], the maximal response (Emax) came out at 101% and the IC50 is 0.00794 µM. For the same compound, on OGA, the maximal response (Emax) amounted to 79% and the EC50 was 0.1 µM.

With `Cc1cncc(OC2CCN(C(C)c3ccc4c(n3)OCCO4)CC2)c1` (centres unmarked) [Compound 47], in experiment [1], the maximal effect (Emax) is 99% and the IC50 is 0.0631 µM. For the same compound, on OGA, the maximum response (Emax) is 67% and the EC50 was 0.316 µM.

With `CC(c1nc2c(cc1F)OCCO2)N1CCC(Oc2ccc(C(F)(F)F)nn2)CC1` (centres unmarked) [Compound 39], in experiment [1], the Emax came out at 101% and the IC50 is 0.02 µM. In addition, on OGA, the Emax came out at 73% and the EC50 was 0.316 µM.
